Assay results: patent US8436043B2 (Takeda Pharmaceutical Company Limited, priority 2008, dated 2013)

Biological target: T1, human glucagon receptor (Homo sapiens, UniProt P47871)
T1 construct: made in house; host or cells: FreeStyle CHO cells, transient transfection with pMSRαneo/hGCGR; membrane fraction (35,000 rpm pellet)
Assay: Glucagon binding inhibitory activity ([125I]-glucagon binding to glucagon receptor membrane protein)
Conditions: test compound 10 μM; 0.4% DMSO = 0%, non-labeled glucagon 1 μM = 100%
Method: The glucagon binding inhibitory action of the compound of the present invention was evaluated by the following method.
(1) Cloning of Human Glucagon Receptor Gene
Human glucagon receptor gene was cloned by PCR reaction using human pancreas Marathon-ready cDNA (Clontech) as a template and the following primer set.
PCR reaction was performed using Advantage 2 polymerase (Clontech) and according to the attached protocol. The obtained PCR product was electrophoresed on an agarose gel (1%). An about 1.4 kb of DNA fragment containing a glucagon receptor gene was recovered from the gel and digested with restriction enzymes EcoRI and NotI. DNA treated with the restriction enzymes was electrophoresed on an agarose gel (1%). An about 1.4 kb of DNA fragment was recovered and ligated to plasmid pMSRαneo digested with restriction enzymes EcoRI and NotI to construct a human-type glucagon receptor expression plasmid DNA “pMSRαneo/hGCGR”.
(2) Preparation of Glucagon Receptor Membrane Protein
A human-type glucagon receptor was expressed using FreeStyle CHO Expression System (Invitrogen). A transient expression in FreeStyle CHO cell was performed using a human-type glucagon receptor expression plasmid DNA “pMSRαneo/hGCGR” and according to the manual attached to the FreeStyle CHO Expression System. The above-mentioned DNA was transfected and the cultured with shaking for 2 days (37° C., 8% CO2, 125 rpm). 2400 ml of culture medium was centrifuged at 2,000 rpm for 10 min and the cells were collected. The collected cells were washed with PBS, suspended in homogenate buffer [10 mM NaHCO3 (pH 7.4), 1 mM EDTA, Complete EDTA-free (Roche, 1 tablet/50 ml)] and disrupted by polytron cell disrupter (Kinematica AG). Disruption solution was centrifuged at 2,000 rpm for 10 min and the supernatant was collected.
(3) Measurement of Glucagon Binding Inhibitory Activity
The plate was stood for 90 min at room temperature. The reaction solution was transferred from the reaction plate to a 96 well unifilter GF/C plate (Perkin Elmer Inc.) using a cell harvester (Perkin Elmer Inc.) and the membrane fraction was collected on the filter by suction. The filter was presoaked in 2 mg/ml of polyethyleneimine to prevent non-specific adsorption of labeled ligand. The filter was washed 4 times with a reaction buffer and dried for 2 hr at 42° C. To each well was added 25 μl of scintillator (MicroScint0; Perkin Elmer Inc.), and the fluorescence amount was measured using a microplate scintillation counter (TopCount NXT™; Perkin Elmer Inc.).
In addition, the inhibitory rate (%) of the well added with the test compound (10 μM; containing 0.4% DMSO) was calculated, using the reaction rate of the well added only with 0.4% DMSO as 0% inhibitory rate, and the reaction rate of the well added with non-labeled glucagon (final concentration 1 μM) as 100% inhibitory rate.

T1 sequence (P47871 26-477): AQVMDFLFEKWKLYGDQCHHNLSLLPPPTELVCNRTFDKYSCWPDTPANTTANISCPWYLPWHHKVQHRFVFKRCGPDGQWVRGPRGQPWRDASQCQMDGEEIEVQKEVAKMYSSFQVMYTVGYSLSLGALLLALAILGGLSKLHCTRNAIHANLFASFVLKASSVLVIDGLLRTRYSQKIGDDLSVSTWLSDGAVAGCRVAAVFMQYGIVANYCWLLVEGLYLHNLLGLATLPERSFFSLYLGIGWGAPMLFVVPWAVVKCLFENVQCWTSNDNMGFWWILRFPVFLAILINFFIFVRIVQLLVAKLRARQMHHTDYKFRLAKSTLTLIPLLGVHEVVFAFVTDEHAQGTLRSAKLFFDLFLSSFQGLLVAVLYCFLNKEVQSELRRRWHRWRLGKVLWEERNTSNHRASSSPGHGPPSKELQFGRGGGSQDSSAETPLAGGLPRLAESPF

**Q.** With `Cc1c(C(Nc2ccc(C(=O)N(C)CCC(=O)O)nc2)C2CCCCC2)sc2ccccc12` (centres unmarked) [Example A60, 3-{[(5-{[cyclohexyl(3-methyl-1-benzothiophen-2-yl)methyl]amino}pyridin-2-yl)carbonyl](methyl)amino}propanoic acid] as the compound, how does the “inhibitory rate (%) at 10 μM” value read?
**A.** 85%

Same assay, conditions: test compound 10 μM; 0.4% DMSO = 0%, non-labeled glucagon 1 μM = 100%; read-out: inhibitory rate (%) at 10 μM

**Q.** `COc1ccc2oc(C(Nc3ccc(C(=O)N(C)CCC(=O)O)cc3)C3CCCCC3)cc2c1` (centres unmarked) [Example A25, 3-{[(4-{[cyclohexyl(5-methoxy-1-benzofuran-2-yl)methyl]amino}phenyl)carbonyl](methyl)amino}propanoic acid] was tested. Which inhibition at 10 µM did it give?
**A.** 60%

**Q.** How did the inhibition at 10 µM turn out when `COc1nn(-c2ccc(OC(F)(F)F)cc2)cc1C(Nc1ccc(C(=O)NCCC(=O)O)cc1)C1CCCCC1` (centres unmarked) [Example 62, 3-[({4-[(cyclohexyl{3-methoxy-1-[4-(trifluoromethoxy)phenyl]-1H-pyrazol-4-yl}methyl)amino]phenyl}carbonyl)amino]propanoic acid] was run?
**A.** 68%

**Q.** For `Cc1c(C(Nc2ccc(C(=O)NCCC(=O)O)cc2)C2CCCCC2)oc2ccc(Cl)nc12` (centres unmarked) [Example A127, 3-{[(4-{[(5-chloro-3-methylfuro[3,2-b]pyridin-2-yl)(cyclohexyl)methyl]amino}phenyl)carbonyl]amino}propanoic acid], which inhibition at 10 µM is on record?
**A.** 71%

**Q.** How did the inhibition at 10 µM turn out when `Cc1c(C(Nc2ccc(C(=O)N(C)CCC(=O)O)nc2)C2CCCCC2)oc2ccc(F)cc12` (centres unmarked) [Example A56, 3-{[(5-{[cyclohexyl(5-fluoro-3-methyl-1-benzofuran-2-yl)methyl]amino}pyridin-2-yl)carbonyl](methyl)amino}propanoic acid] was run?
**A.** 76%

**Q.** For `Cc1c(C(Nc2ccc(C(=O)NCCC(=O)O)cc2)C2CCCCC2)oc2c(F)cc(F)cc12` (centres unmarked) [Example A163, 3-{[(4-{[cyclohexyl(5,7-difluoro-3-methyl-1-benzofuran-2-yl)methyl]amino}phenyl)carbonyl]amino}propanoic acid], which inhibition at 10 µM is on record?
**A.** 87%

**Q.** How did the inhibition at 10 µM turn out when `Cc1cc(F)ccc1-n1cc(C(Nc2ccc(C(=O)N(C)CCC(=O)O)cc2)C2CCCCC2)c(C)n1` (centres unmarked) [Example 22, 3-[{[4-({[1-(4-fluoro-2-methylphenyl)-3-methyl-1H-pyrazol-4-yl](cyclohexyl)methyl}amino)phenyl]carbonyl}(methyl)amino]-propanoic acid] was run?
**A.** 61%

**Q.** How did the inhibition at 10 µM turn out when `O=C(O)CCNC(=O)c1ccc(NC(c2csc3ccccc23)C2CCCCC2)cc1` (centres unmarked) [Example A1, 3-{[(4-{[1-benzothiophen-3-yl(cyclohexyl)methyl]amino}phenyl)carbonyl]amino}propanoic acid] was run?
**A.** 76%

**Q.** With `Cc1c(C(Nc2ccc(C(=O)N(C)CCC(=O)O)cc2)C(C)C)oc2cccc(F)c12` (centres unmarked) [Example A175, 3-{[(4-{[1-(4-fluoro-3-methyl-1-benzofuran-2-yl)-2-methylpropyl]amino}phenyl)carbonyl](methyl)amino}propanoic acid] as the compound, how does the inhibition at 10 µM read?
**A.** 68%

**Q.** Which inhibition at 10 µM does the source give for `COc1ccc2oc(C(Nc3ccc(C(=O)N(C)CCC(=O)O)cc3)C3CCCCC3)c(Br)c2c1` (centres unmarked) [Example A103, 3-{[(4-{[(3-bromo-5-methoxy-1-benzofuran-2-yl)(cyclohexyl)methyl]amino}phenyl)carbonyl](methyl)amino}-propanoic acid] here?
**A.** 66%

**Q.** With `Cc1nn(-c2ccccc2)cc1C(Nc1ccc(C(=O)N(C)CCC(=O)O)cc1)C1CCCCC1` (centres unmarked) [Example 18, 3-{[(4-{[cyclohexyl(3-methyl-1-phenyl-1H-pyrazol-4-yl)methyl]amino}phenyl)carbonyl](methyl)amino}propanoic acid] as the compound, how does the inhibition at 10 µM read?
**A.** 72%

**Q.** `Cc1c(C(Nc2ccc(C(=O)N(C)CCC(=O)O)cc2)C(C)C)oc2ccc(OCc3ccccc3)cc12` (centres unmarked) [Example A85, 3-[{[4-({1-[5-(benzyloxy)-3-methyl-1-benzofuran-2-yl]-2-methylpropyl}amino)phenyl]carbonyl}(methyl)amino]propanoic acid] was tested. Which inhibition at 10 µM did it give?
**A.** 82%

**Q.** For `Cc1nn(-c2ncc(C(F)(F)F)cc2Cl)cc1C(Nc1ccc(C(=O)N(C)CCC(=O)O)cc1)C1CCCCC1` (centres unmarked) [Example 32, 3-{[(4-{[{1-[3-chloro-5-(trifluoromethyl)pyridin-2-yl]-3-methyl-1H-pyrazol-4-yl}(cyclohexyl)methyl]amino}phenyl)carbonyl](methyl)amino}-propanoic acid], which inhibition at 10 µM is on record?
**A.** 59%

**Q.** How did the inhibition at 10 µM turn out when `Cc1c(C(Nc2ccc(C(=O)N(C)CCC(=O)O)cc2)C2CCCCC2)oc2ccc(Oc3ccccn3)cc12` (centres unmarked) [Example A200, 3-[{[4-({cyclohexyl[3-methyl-5-(pyridin-2-yloxy)-1-benzofuran-2-yl]methyl}amino)phenyl]carbonyl}(methyl)amino]propanoic acid] was run?
**A.** 89%

**Q.** Which inhibition at 10 µM does the source give for `Cc1c(C(Nc2ccc(C(=O)N(C)CCC(=O)O)cc2)C2CCCCC2)oc2ccc(Cl)nc12` (centres unmarked) [Example A128, 3-{[(4-{[(5-chloro-3-methylfuro[3,2-b]pyridin-2-yl)(cyclohexyl)methyl]amino}phenyl)carbonyl](methyl)amino}-propanoic acid] here?
**A.** 83%

**Q.** With `COCc1nn(-c2cccc(C(F)(F)F)n2)cc1C(Nc1ccc(C(=O)NCCC(=O)O)cc1)C1CCCCC1` (centres unmarked) [Example 91, 3-[({4-[(cyclohexyl{3-(methoxymethyl)-1-[6-(trifluoromethyl)pyridin-2-yl]-1H-pyrazol-4-yl}methyl)amino]phenyl}carbonyl)amino]propanoic acid] as the compound, how does the inhibition at 10 µM read?
**A.** 71%

**Q.** `COc1ccc2oc(C(Nc3ccc(C(=O)N(C)CCC(=O)O)cc3)C3CCCCC3)c(C#N)c2c1` (centres unmarked) [Example A109, 3-{[(4-{[(3-cyano-5-methoxy-1-benzofuran-2-yl)(cyclohexyl)methyl]amino}phenyl)carbonyl](methyl)amino}-propanoic acid] was tested. Which inhibition at 10 µM did it give?
**A.** 58%

**Q.** Which inhibition at 10 µM does the source give for `Cc1c(C(Nc2ccc(C(=O)NCCC(=O)O)cc2)C2CCCC2)sc2ccccc12` (centres unmarked) [Example A63, 3-{[(4-{[cyclopentyl(3-methyl-1-benzothiophen-2-yl)methyl]amino}phenyl)carbonyl]amino}propanoic acid] here?
**A.** 90%

**Q.** For `Cc1c(C(Nc2ccc(C(=O)NCCC(=O)O)cc2)C2CCCCC2)sc2ccccc12` (centres unmarked) [Example A10, 3-{[(4-{[cyclohexyl(3-methyl-1-benzothiophen-2-yl)methyl]amino}phenyl)carbonyl]amino}propanoic acid], which inhibition at 10 µM is on record?
**A.** 80%

**Q.** For `Cc1c(C(Nc2ccc(C(=O)N(C)CCC(=O)O)cc2)C2CCCCC2)oc2ccc(OC3CCSCC3)cc12` (centres unmarked) [Example A160, 3-[{[4-({cyclohexyl[3-methyl-5-(tetrahydro-2H-thiopyran-4-yloxy)-1-benzofuran-2-yl]methyl}amino)phenyl]carbonyl}(methyl)amino]propanoic acid], which inhibition at 10 µM is on record?
**A.** 92%

**Q.** How did the inhibition at 10 µM turn out when `Cc1c(C(Nc2ccc(C(=O)NCCC(=O)O)cc2)C2CCCCC2)oc2cccnc12` (centres unmarked) [Example A112, 3-{[(4-{[cyclohexyl(3-methylfuro[3,2-b]pyridin-2-yl)methyl]amino}phenyl)carbonyl]amino}propanoic acid] was run?
**A.** 85%

**Q.** With `Cc1c(C(Nc2ccc(C(=O)NCCC(=O)O)cc2)C2CCCCC2)sc2ncccc12` (centres unmarked) [Example A142, 3-{[(4-{[cyclohexyl(3-methylthieno[2,3-b]pyridin-2-yl)methyl]amino}phenyl)carbonyl]amino}propanoic acid] as the compound, how does the inhibition at 10 µM read?
**A.** 87%

**Q.** With `CCCCCCC(Nc1ccc(C(=O)NCCC(=O)O)cc1)c1oc2ccc(OC)cc2c1C` (centres unmarked) [Example A118, 3-{[(4-{[1-(5-methoxy-3-methyl-1-benzofuran-2-yl)heptyl]amino}phenyl)carbonyl]amino}propanoic acid] as the compound, how does the inhibition at 10 µM read?
**A.** 70%
